pEC50, pIC50: −log10 of the molar value. Where a SMILES comes first, the peptide text is derived from it.

The target of one assay is purified HLA-B7 (Homo sapiens, UniProt P01889). Put plainly: Inhibition of binding of iodinated standard peptide to purified HLA-B7. The settings on record: iodinated endogenous B7 peptide […]. How it is done:
Binding of synthetic peptides to purified HLA-B7. HPLC-purified test peptides were assayed for the ability to inhibit the binding of the iodinated endogenous B7 peptide […] (SEQ ID NO:4) to purified HLA-B7 as previously described (40). (♦), SMCY peptide […] (SEQ ID NO:1); (▪) SMCX peptide […] (SEQ ID NO:3); (Δ), […] (SEQ ID NO:5), an endogenous peptide bound to HLA-B7; (x) […] (SEQ ID NO.6), an endogenous peptide bound to HLA-A2.1 as the negative control.
The corresponding peptide derived from the sequence of the X chromosomal homolog, SMCX, has substitutions of A for S at position 3 and Q for R at position 8. […] Thus, the significant difference in the ability of the SMCY and SMCX peptides to sensitize targets for T cell recognition is almost entirely due to the fine specificity of the T cell receptor, rather than to differences in MHC binding affinities. The SMCX peptide is also present in naturally processed peptide extracts of HLA-B7, although its abundance is only 25% of that of the SMCY peptide (33). Based on all of this information, it is concluded that the peptide epitopes representing the HLA-B7 restricted H-Y antigen is derived from the protein encoded by SMCY, which is also true for the HLA-A2.1 recognized peptide, also encoded by SMCY.

The subject of another assay is T2-B7 cells. The experiment in a line: H-Y epitope reconstitution, 51Cr release assay with HLA-B7-restricted H-Y specific CTL clone 5W4. Type of assay: cell-based, human. As to conditions: T2-B7 cells sensitized with synthetic peptide, effector to target ratio 10 to 1, read-out: peptide concentration at which half-maximal lysis was achieved. The text has this:
Reconstitution of the H-Y epitope with HPLC fractionated peptides extracted from HLA-B7 molecules. (A) HLA-B7 molecules were immunoaffinity purified from […] H-Y positive JY cells. Peptides were eluted from B7 molecules with 10% acetic acid, pH 2.2, filtered through a 10 kD cut-off filter and fractionated on a C18 reverse phase column. Buffer A was 0.1% heptafluorobutyric acid (HFBA); buffer B was 0.1% HFBA in acetonitrile. The gradient consisted of 100% buffer A (0–20 mm), 0 to 12% buffer B (20 to 25 mm), and 12 to 50% buffer B (25 to 80 mm) at a flow rate of 200 μl/min. 60 fractions of 200 μl each were collected from 20 to 80 mm. […]
H-Y epitope reconstitution with synthetic peptides. […] Purity was established on an analytical RP column and the quantity of each peptide was confirmed by comparing the area of the peak with that of a standard peptide. […]
To isolate endogenously processed H-Y peptides, HLA-B7 molecules were purified by affinity chromatography from the H-Y positive, B lymphoblastoid cell line, JY (29). […] Although a single active peak of reconstituting activity was also observed from this separation (FIG. 1B, fraction 14, 15 and 16), it still contained more than 100 distinct peptide species, as assessed by electrospray ionization tandem mass spectrometry. […]

Assay [1] relates to HLA-A2.1 restricted H-Y specific T cell clones. The experiment in a line: H-Y reconstitution assay with HLA-A2.1 restricted H-Y specific T cell clones R416 and 1R35. Type of assay: cell-based, human. The text has this:
HLA-A2 molecules were immunoaffinity purified from 10^10 DM cells. Peptides were eluted according to the methodology as described in legend to FIG. 1.
In the same manner as described above for the HLA-B7 restricted T-cell clone, the peptide recognized by two HLA-A2.1 T-cell clones was identified. In short the HLA-A2.1 restricted H-Y specific T cell clone R416 recognizes HPLC fraction 34, the HLA-A2.1 restricted H-Y specific T clone 1R35 recognizes HPLC fractions 36 and 39 (FIG. 6).

Sequence of purified HLA-B7 (P01889 25-362): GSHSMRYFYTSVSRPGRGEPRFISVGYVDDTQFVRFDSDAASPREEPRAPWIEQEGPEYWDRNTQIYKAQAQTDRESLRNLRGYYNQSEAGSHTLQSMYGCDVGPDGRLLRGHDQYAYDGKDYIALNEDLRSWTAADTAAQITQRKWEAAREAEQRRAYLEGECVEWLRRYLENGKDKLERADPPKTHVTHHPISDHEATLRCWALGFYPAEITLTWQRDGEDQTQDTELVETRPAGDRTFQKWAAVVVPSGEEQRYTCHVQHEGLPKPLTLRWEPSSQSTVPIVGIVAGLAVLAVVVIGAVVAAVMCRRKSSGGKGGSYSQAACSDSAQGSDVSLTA
Sequence of purified HLA-B7 (P61769 21-119 partner): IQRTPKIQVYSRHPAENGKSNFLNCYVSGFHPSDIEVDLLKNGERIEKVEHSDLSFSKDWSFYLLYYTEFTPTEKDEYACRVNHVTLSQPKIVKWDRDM

One may read the pIC50 as the IC50 on a negative log10 scale, so that one unit is a factor of ten. On to `CC(C)C[C@H](NC(=O)[C@H](CCC(=O)O)NC(=O)[C@H](C)NC(=O)[C@H](CCC(N)=O)NC(=O)[C@H](C)NC(=O)[C@H](CCCCN)NC(=O)[C@H](CC(=O)O)NC(=O)[C@@H](NC(=O)[C@H](C)NC(=O)[C@@H]1CCCN1C(=O)[C@@H](N)CO)C(C)C)C(=O)O` [SMCX peptide, reference compound] (H-SPAVDKAQAEL-OH), for which, on purified HLA-B7, the pIC50 is 6.85. `CC(C)C[C@H](NC(=O)[C@H](CCC(=O)O)NC(=O)[C@H](C)NC(=O)[C@H](CCCNC(=N)N)NC(=O)[C@H](C)NC(=O)[C@H](CCCCN)NC(=O)[C@H](CC(=O)O)NC(=O)[C@@H](NC(=O)[C@H](CO)NC(=O)[C@@H]1CCCN1C(=O)[C@@H](N)CO)C(C)C)C(=O)O` [SMCY peptide] (H-SPSVDKARAEL-OH; N-terminus and C-terminus assumed): the pIC50 at purified HLA-B7 is 7.47. Besides, the pEC50 with T2-B7 cells is 11.00. With “FIDSYICQV (listed as Homo sapiens) [SMCY-encoded peptide recognized by HLA-A2.1 restricted H-Y specific T cell clones]”, the “recognition by HLA-A2.1 restricted H-Y specific T cell clones” value in assay [1] is given as “recognize”.

These data come from patent US7008922B2, “H-Y antigen” (Rijksuniversiteit te Leiden, priority 1995, dated 2006).
